As a reminder, the IC50 is the concentration that inhibits the measured activity by half.

The assay addresses Glycogen synthase kinase-3 beta (Homo sapiens, UniProt P49841). The experiment in a line: Biochemical hGSK-3Beta Assay: Compounds were tested for their ability to inhibit human Glycogen Synthase Kinase-3 beta (hGSK-3β) to phosphorylate biotin-[…](pS)EDEEE. Compounds were incubated with 0.5 μCi 33P-ATP, 10 μM ATP, 0.0125 U hGSK-3β (Upstate cell signaling solutions) and 1 μM substrate (biotin-[…](pS)EDEEE) in 50 mM HEPES, 10 mM MgCl2, 100 mM Na3VO4, 1 mM DTT, 0.0075% Triton, 2% DMSO (total volume 50 μL) for 30 minutes at room temperature. The incubation was stopped by addition of an equal volume of 100 mM EDTA, 4M NaCl. 80 μL of this mixture was added to streptavidin-coated Flash-plates (PerkinElmer). Following a wash step, 33P incorporation was quantified on a MicroBeta microplate liquid scintillation counter (Perkin Elmer). IC50s were determined by fitting a sigmoidal dose-response curve to the counts obtained at the different concentrations in GraphPad Prism.

Sequence of Glycogen synthase kinase-3 beta (P49841 whole entry): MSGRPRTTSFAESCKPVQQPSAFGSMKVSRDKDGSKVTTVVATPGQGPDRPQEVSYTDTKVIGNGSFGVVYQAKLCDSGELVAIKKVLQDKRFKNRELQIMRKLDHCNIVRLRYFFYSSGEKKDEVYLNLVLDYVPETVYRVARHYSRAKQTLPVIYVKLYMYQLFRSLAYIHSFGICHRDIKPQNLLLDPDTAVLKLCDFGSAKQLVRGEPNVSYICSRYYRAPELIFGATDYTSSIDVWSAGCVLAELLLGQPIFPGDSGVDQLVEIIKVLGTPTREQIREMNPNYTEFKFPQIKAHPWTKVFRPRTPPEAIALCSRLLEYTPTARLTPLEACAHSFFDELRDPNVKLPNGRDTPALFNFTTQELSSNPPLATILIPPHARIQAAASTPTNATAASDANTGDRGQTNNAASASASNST

`N#Cc1ccc2c(c1)C(c1ccc3c(n1)CCCC3=O)C(=O)N2` (configuration not stated): the 50% inhibitory concentration (IC50) was less than 0.1 µM.

`N#Cc1ccc2c(c1)C(c1ccc3c(n1)C(O)CCC3)C(=O)N2` (configuration not stated): the IC50 is less than 0.1 µM.

(Values after ChEMBL document CHEMBL5725797, “Heterocyclic compounds and their use as glycogen synthase kinase-3 inhibitors” (2018).)
